According to patent EP0236307B1, “ANTIHYPERTENSIVE AGENTS, PHARMACEUTICAL COMPOSITIONS CONTAINING THEM AND PROCESSES FOR THE PREPARATION OF THE AGENTS AND COMPOSITIONS” (SCHERING CORPORATION, priority 1985, dated 1987):

Test system: angiotensin converting enzyme
Test: In-vivo ACE inhibitory activity: inhibition of the pressor response to i.v. angiotensin I in anesthetised rats
Details: for ID50 (i.v.): intravenous dose required to inhibit the pressor response to i.v. angiotensin I by 50% in anesthetised rats; for ID50 (oral): oral dose required to inhibit the pressor response to i.v. angiotensin I by 50% in anesthetised rats
Description: As mentioned before the compounds of this invention show valuable antihypertensive activity. It can be concluded from animal tests that these compounds have high angiotensin converting enzyme inhibitory activity (ACE inhibitory activity). The in-vivo ACE inhibitory activity of Compound A: 1- [N-[1(S)-carboxy-3- [4-(4-chloro-3-sulfamoyl benzamido) phenyl] propyl](S)-alanyl]cis,syn-octahydroindole-2-(S)-carboxylic acid Compound B: 1-[N-[1(S)-carboxy-3-[4-(4-chloro-3-N-methyl-sulfamoyl benzamido)phenyl]propyl]-(S)-alanyl]cis, syn-octahydroindole-2(S)-carboxylic acid is as follows: […]

C[C@H](N[C@@H](CCc1ccc(NC(=O)c2ccc(Cl)c(S(N)(=O)=O)c2)cc1)C(=O)O)C(=O)N1[C@H](C(=O)O)C[C@@H]2CCCC[C@@H]21 [Compound A, 1-[N-[1(S)-carboxy-3-[4-(4-chloro-3-sulfamoylbenzamido)phenyl]propyl](S)-alanyl]cis,syn-octahydroindole-2-(S)-carboxylic acid]
ID50 (i.v.): 0.036 mg/kg
ID50 (oral): 3 mg/kg

CNS(=O)(=O)c1cc(C(=O)Nc2ccc(CC[C@H](N[C@@H](C)C(=O)N3[C@H](C(=O)O)C[C@@H]4CCCC[C@@H]43)C(=O)O)cc2)ccc1Cl [Compound B, 1-[N-[1(S)-carboxy-3-[4-(4-chloro-3-N-methyl-sulfamoylbenzamido)phenyl]propyl]-(S)-alanyl]cis, syn-octahydroindole-2(S)-carboxylic acid]
ID50 (i.v.): 0.033 mg/kg
ID50 (oral): 3 mg/kg
